Data published in article PMC9126943, “ADAMTS4-specific MR probe to assess aortic aneurysms in vivo using synthetic peptide libraries” (Nature Communications, 2022).
Where a SMILES comes first, the peptide text is derived from it. Bridges are numbered along the chain shown (N, C = ends). The star is where a group is joined. DOTA = O=C(O)CN1CCN(CC(=O)O)CCN(CC(=O)*)CCN(CC(=O)O)CC1

Target: T1, ADAMTS4 (Homo sapiens, UniProt O75173)
T1 construct: This is consistent with the recombinant proteins, we used in the screening process; purchased BioTeZ Berlin-Buch GmbH 30 400 102
T1 sequence (O75173 213-685): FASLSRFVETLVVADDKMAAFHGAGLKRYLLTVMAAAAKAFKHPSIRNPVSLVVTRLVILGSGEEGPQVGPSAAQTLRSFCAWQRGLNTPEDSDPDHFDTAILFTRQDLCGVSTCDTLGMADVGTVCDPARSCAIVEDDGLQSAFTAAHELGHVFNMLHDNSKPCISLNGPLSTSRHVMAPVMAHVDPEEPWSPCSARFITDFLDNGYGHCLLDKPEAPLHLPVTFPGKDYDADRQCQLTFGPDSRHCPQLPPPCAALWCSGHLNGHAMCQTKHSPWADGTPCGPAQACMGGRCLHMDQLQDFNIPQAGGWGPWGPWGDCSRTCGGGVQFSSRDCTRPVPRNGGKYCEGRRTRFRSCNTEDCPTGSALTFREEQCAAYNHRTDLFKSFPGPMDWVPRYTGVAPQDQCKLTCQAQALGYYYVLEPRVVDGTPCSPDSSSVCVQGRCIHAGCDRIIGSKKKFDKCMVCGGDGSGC
Test: MST of earlier manuscript version (RED-tris-NTA labeled protein)
Conditions: earlier manuscript version quoted in peer review file; RED-tris-NTA labeled ADAMTS4, FAM-5 labeled peptides; read-out: binding constant (KD)
Description: on the beads. Additionally, we could not find any traces of proteins in the MALDI-TOF-MS […]
We identified one candidate as the most promising binding peptide for ADAMTS4 with the sequence Ser- Cys*-Gly-Arg-Arg-Ser-Cys* (Supp. Fig. 1b, c).
5. “The representation of SPR data needs to be adjusted, additional experimental details have to be added to the Supplemental figures. Please, see the comments in Supplemental for details.” We apologize to the reviewer for this oversight. All data are now added to the supplemental material. SPR was only use for classification to determine whether the peptides represent potential […]
Page 8: For the resulting ADAMTS4- specific probe, we measured a binding constant of 38 nM […]
6. […] The data quality if […]
unfortunately too poor (the amplitude too low; minimal recommended amplitude is 3). Also, why were the FAM-5 labeled peptides used in the combination with the RED-tris-NTA labeled protein? […]
Additionally, we measured the same probe against ADAMTS1 and ADAMTS5 in the same concentration range, and we could not detect binding in this range (Supp. Fig. 2a). […]
R = Ranti−His−Ab ∗ MADAMTS4 ∗ Valencyanti−His−Ab we calculated a Rmax of 5524 µRIU. […]
Before and after the run, a blank was measured. […]
19. […] Using the fluorescence of the labeled […]
We added the sensogram and calculated the protein capture (please refer to question 16).

## N=C(N)NCCC[C@@H]1NC(=O)[C@H](CCCNC(=N)N)NC(=O)[C@H](CO)NC(=O)[C@@H](N)CSSC[C@@H](C(=O)N[C@@H](CO)C(=O)NCC(=O)NCC(=O)N[C@@H](CO)C(=O)NCC(=O)NCC(=O)N[C@@H](CCCCNC(=O)CN2CCN(CC(=O)O)CCN(CC(=O)O)CCN(CC(=O)O)CC2)C(=O)NCC(N)=O)NC(=O)CNC1=O (Gd complex, metal not drawn) [ADAMTS4-specific probe] (H-CSRRGCSGGSGGK(DOTA)G-NH2; disulfide 1-6)
  Kd: 0.038 µM
